# Test results from patent US8293895B2, “Carbapenem derivatives” (KBP Biosciences Co., Ltd., priority 2007, dated 2012).
# Legend:
# [1] = In vivo pharmacokinetics of SD rat
# Procedure: Drugs to be Tested and Preparation Thereof
# Drugs to be tested: partial compounds of the present invention, self-synthesized as described above.
# Control drugs: Ertapenem (Ertapenem for Injection), commercially available.
# Internal standard substance: Warfarin, white powder, purity: 99%, batchnumber: 0072-8501, provided by Shanghai Institute for Drug Control.
# Drug formulation: being dissolved in physiological saline to make the final concentration to be 5 mg/mL for intravenous injection and formulated before administration.
# Test animal: SD male rats, weight: 200˜250 g, purchased from SHANGHAI SLAC LABORATORY ANIMAL CO. LTD.
# Administration of the drugs to be tested: The SD male rats were randomly divided into five groups, 3 in each group, administrated by intravenous injection in an amount of 10 mg/kg; and weighted before administration.
# Collection of Samples: Zero time was marked before administration; 0.5 mL of blood was respectively sampled from orbit venous plexus at 5 min, 15 min, 30 min, 45 min, 1 h, 2 h, 4 h, 6 h, 8 h, 24 h after administration into heparinized centrifuge tubes. The samples were centrifuged for 6 minutes at 8000 rpm and the supernatant plasma was separated. The plasma was freezed at −20° C. for LC-MS/MS analysis. Establishing liquid chromatography-mass spectrometry (LC-MS) methodology: Chromatographic conditions: chromatographic column. Gemini C6-Phenyl (50 mm×4.6 mm, 5 μm), mobile phase: 0.1% of formic acid-water-acetonitrile (5:35:60, v/v/v); flow rate: 1 mL/min; column temperature: 35-40° C., injection volume: 5 μL; split ratio: 1/5. Mass spectrometer conditions: scanning pattern: cation multiple reactions monitoring (MRM); ion source: electrospray ionization (ESI); Nebulize gas: 8 L/min; Curtain gas: 8 L/min; Collision gas: 4 L/min; Ionspray voltage: 4500 v; Temperature: 400° C./500° C. Preparation of the Standard Curve and Quality-Control Sample: a Suitable Amount of the drug to be tested was weighted precisely and then formulated into a stock solution (2.6 mg/mL) with ultrapure water. The stock solution was diluted with methanol to obtain a series of working solutions in a concentration of 25000, 5000, 2500, 500, 250 and 50 ng/mL respectively. 100 μL of plasma samples were respectively added into 20 μL of said working solutions to obtain the calibrated solutions in a concentration of […]. By the same method, the quality-controlled sample solutions in a concentration of 4000, 800 and 20 ng/mL can be prepared. A standard curve was obtained by chromatographic analysis of the sample. Methods for handling of sample: 20 μL of acetonitrile and 200 μL (200 ng/mL) Warfarin in acetonitrile were added into 100 μL of plasma sample, then spun for 1 minute and centrifuged for 5 minutes at 15000 rpm. 100 μL of the supernatant was taken, where 3 μL was used for the LC/MS/MS analysis. Results and Discussions: Concentration to be administered: The formulated drugs were determined using HPLC, and compared with the standard to obtain that the accuracy of the concentration of the drug solution administered by intravenous injection was 103.2%. Data analysis: The drug concentration in plasma would be considered as zero if under detectable limit (10 ng/mL). The pharmacokinetics parameters were calculated by the non-compartment model using Winnonlin Professional 5.2 pharmacokinetics software. Pharmacokinetics: The pharmacokinetics parameters and drug-time curve were obtained by measuring the plasma drug concentration at different time points. The half lives (t1/2) of the tested compounds were summarized in Table 3, wherein the half lives of the compounds of the present invention in rats (intravenous injection) were longer than those of Meropenem and Ertapenem.
# [2] = system: methicillin-resistant Staphylococcus aureus (MRSA); assay: In vitro antimicrobial activity, agar dilution method; format: cell-based; conditions: MRSA clinical isolates
# Source text: (§1) Bacterial strains for test: All the bacterial strains are obtained from clinic/hospital and purchased from public organizations. (1) Gram-positive bacteria: methicillin-sensitive Staphylococcus aureus (MSSA), methicillin-resistant Staphylococcus aureus (MRSA), methicillin-resistant Staphylococcus epidermidis (MRSE), methicillin-sensitive Staphylococcus epidermidis (MSSE), penicillin-sensitive Streptococcus pneumoniae (PSSP), penicillin-resistant Streptococcus pneumoniae (PRSP); (2) Gram-negative bacteria: Escherichia coli (products from ESBLs), Klebsiella pneumonia, Pseudomonas aeruginosa. Drugs to be tested: Compound A-E, self-made as described above; Control drugs: Meropenem (Meropenem for injection), Ertapenem (Ertapenem for injection), commercially available. Experimental Method: the agar dilution method, by reference to Methodology of Pharmacological Experiment (XU Shuyun et al, published by the Peoples Medical Publishing House, 1st Edition, August, 1982; 3rd Edition, 5th printing, January 2002, p 1659-1660).
# [3] = system: methicillin-resistant Staphylococcus epidermidis (MRSE); assay: as above; format: cell-based; conditions: MRSE clinical isolates
# Source text: as §1
# pseudomonas aeruginosa = assay: as above; format: cell-based; conditions: pseudomonas aeruginosa clinical isolates
# Source text: as §1
# [4] = system: penicillin-sensitive Streptococcus pneumoniae (PSSP); assay: as above; format: cell-based; conditions: PSSP clinical isolates
# Source text: as §1
# [5] = system: penicillin-resistant Streptococcus pneumoniae (PRSP); assay: as above; format: cell-based; conditions: PRSP clinical isolates
# Source text: as §1
# [6] = system: methicillin-sensitive Staphylococcus epidermidis (MSSE); assay: as above; format: cell-based; conditions: MSSE clinical isolates
# Source text: as §1
# [7] = system: methicillin-sensitive Staphylococcus aureus (MSSA); assay: as above; format: cell-based; conditions: MSSA clinical isolates
# Source text: as §1
# klebsiella pneumonia = assay: as above; format: cell-based; conditions: Klebsiella pneumoniae, klebsiella pneumonia clinical isolates
# Source text: as §1
# serratia marcescens = assay: as above; format: cell-based; conditions: serratia marcescens clinical isolates
# proteus mirabilis = assay: as above; format: cell-based; conditions: proteus mirabilis clinical isolates
# [8] = SD male rats, intravenous injection 10 mg/kg, plasma, X ± SD
SMILES,"Half lives t1/2 [1, 8]",MIC90 [2],MIC90 [3],MIC90 (pseudomonas aeruginosa),MIC90 [4],MIC90 [5],MIC90 [6],MIC90 [7],MIC90 (klebsiella pneumonia),MIC90 (serratia marcescens),MIC90 (proteus mirabilis),"Half lives t1/2 ([1]; rat, in vivo, iv, 10 mg/kg)"
"C[C@@H](O)[C@H]1C(=O)N2C(C(=O)O)=C(S[C@@H]3CN[C@H](C(=O)NCc4ccc(C(=O)O)o4)C3)[C@H](C)[C@H]12 [Compound B, (4R,5S,6S)-3-[(2S,4S)-2-formyl[[furan-2-carboxy-5-ylmethyl]amino]-pyrrolidine-4-yl]thio-6-[(1R)-1-hydroxyethyl]-4-methyl-7-oxo-1-aza-bicyclo[3.2.0]hept-2-ene-2-carboxylic acid]",43.2 ± 1.8 min,64 mg/L,2 mg/L,32 mg/L,0.008 mg/L,1 mg/L,0.25 mg/L,0.25 mg/L,0.5 mg/L,0.063 mg/L,0.063 mg/L,–
"C[C@@H](O)[C@H]1C(=O)N2C(C(=O)O)=C(S[C@@H]3CN[C@H](C(=O)NCc4ccco4)C3)[C@H](C)[C@H]12 [Compound A, (4R,5S,6S)-3-[(2S,4S)-2-formyl[[furan-2-ylmethyl]amino]pyrrolidine-4-yl]thio-6-[(1R)-1-hydroxyethyl]-4-methyl-7-oxo-1-aza-bicyclo[3.2.0] hept-2-ene-2-carboxylic acid]",21 ± 2.4 min,32 mg/L,1 mg/L,64 mg/L,0.008 mg/L,0.5 mg/L,0.125 mg/L,0.125 mg/L,0.125 mg/L,0.063 mg/L,0.063 mg/L,–
"C[C@@H](O)[C@H]1C(=O)N2C(C(=O)O)=C(S[C@@H]3CN[C@H](C(=O)N(C)C)C3)[C@H](C)[C@H]12 [Meropenem, reference compound]",6.6 ± 1.2 min,64 mg/L,2 mg/L,32 mg/L,0.008 mg/L,1 mg/L,0.125 mg/L,0.25 mg/L,0.5 mg/L,0.063 mg/L,0.063 mg/L,–
"C[C@@H](O)[C@H]1C(=O)N2C(C(=O)O)=C(S[C@@H]3CN[C@H](C(=O)NCc4ccc(S(N)(=O)=O)o4)C3)[C@H](C)[C@H]12 [Compound E, (4R,5S,6S)-3-[(2S,4S)-2-formyl[[furan-2-sulphonylamino-5-ylmethyl]amino]-pyrrolidine-4-yl]thio-6-[(1R)-1-hydroxyethyl]-4-methyl-7-oxo-1-aza-bicyclo[3.2.0]hept-2-ene-2-carboxylic acid]",41.4 ± 2.4 min,64 mg/L,2 mg/L,32 mg/L,0.008 mg/L,2 mg/L,0.125 mg/L,0.25 mg/L,0.5 mg/L,0.063 mg/L,0.063 mg/L,–
"C[C@@H](O)[C@H]1C(=O)N2C(C(=O)O)=C(S[C@@H]3CN[C@H](C(=O)Nc4cccc(C(=O)O)c4)C3)[C@H](C)[C@H]12 [Ertapenem, reference compound]",–,> 64 mg/L,2 mg/L,> 64 mg/L,0.016 mg/L,2 mg/L,0.25 mg/L,0.5 mg/L,1 mg/L,0.125 mg/L,0.063 mg/L,36 ± 1.8 min
"C[C@@H](O)[C@H]1C(=O)N2C(C(=O)O)=C(S[C@@H]3CN[C@H](C(=O)NCc4cc(C(=O)O)co4)C3)[C@H](C)[C@H]12 [Compound D, (4R,5S,6S)-3-[(2S,4S)-2-formyl[[furan-3-carboxy-5-ylmethyl]amino]-pyrrolidine-4-yl]-thio-6-[(1R)-1-hydroxyethyl]-4-methyl-7-oxo-1-aza-bicyclo[3.2.0]hept-2-ene-2-carboxylic acid]",19.8 ± 1.2 min,32 mg/L,2 mg/L,64 mg/L,0.008 mg/L,1 mg/L,0.125 mg/L,0.25 mg/L,0.125 mg/L,0.063 mg/L,0.063 mg/L,–
"C[C@@H](O)[C@H]1C(=O)N2C(C(=O)O)=C(S[C@@H]3CN[C@H](C(=O)NCc4ccc(CC(=O)O)o4)C3)[C@H](C)[C@H]12 [Compound C, (4R,5S,6S)-3-[(2S,4S)-2-formyl[[furan-2-carboxymethyl-5-ylmethyl]amino]pyrrolidine-4-yl]thio-6-[(1R)-1-hydroxyethyl]-4-methyl-7-oxo-1-aza-bicyclo[3.2.0]hept-2-ene-2-carboxylic acid]",46.8 ± 1.8 min,64 mg/L,1 mg/L,32 mg/L,0.016 mg/L,0.5 mg/L,0.25 mg/L,0.25 mg/L,0.5 mg/L,0.063 mg/L,0.063 mg/L,–
